Patent US20240109855A1, “ANTI-QUORUM SENSING, ANTI-BIOFILM, AND INFLAMMATION ATTENUATING COMPOUNDS, COMPOSITIONS, AND METHODS OF USING SAME” (priority 2021, published 2024)
“Also recorded” adds a separate entry of the source. Where two headings read alike, the source gives them in different places.

What was measured:
[1] = system: Chromobacterium violaceum (CV026); experiment: Quorum sensing inhibition test with bio-reporter CV026 (TLC overlay); type: cell-based; settings: for Degree of QSI of CV026: Table 1, coumaperine derivatives, 40 mM in ~20 μL acetonitrile dried on TLC plate, overnight, color intensity; for QSI activity against CV026, in words: running text; for Degree of QSI of CV026: key: −: no inhibition; +: low inhibition; ++: medium inhibition; +++: strong inhibition; for Degree of quorum sensing inhibition (QSI), CV026: key: −: no inhibition; +: low inhibition; ++: medium inhibition; +++: strong inhibition
Protocol: (§1) TLC preparation: all derivatives were dissolved in 100% acetonitrile to a concentration of 40 mM. Then placed 20 μlon the same spot on the TLC and let the solvent evaporate before use. CV026: few colonies were transferred to liquid LB (Lenox) for overnight incubation at 30° C. in a 45 degree in orbital shaker. At the O.D. 0.8 3 ml of the starter was added to preheated soft LB agar containing 500 nM of 3-oxo-C6 (Sigma-Aldrich). The mixture was then loaded on the TLC in a glass plate for O.N. incubation in 30° C. The next day inhibition zone was measured, while QS is taking place bacteria produce purple pigment, and when QS is inhibited no pigment is produced. KYC55 (pJZ372) (pJZ384) (pJZ410): 20 μl from the frozen stock into 25 ml AT media (AT buffer×20: 1.57 M KH2PO4 pH=7.3. AT salts mix×20: 300 mM (NH4)2SO4, 13 mM MgSO4, 1.4 mM CaCl2, 0.4 mM FeSO4·7H2O, 0.26 mM MnSO4·H2O. AT media: 50 ml×20 AT-buffer, 50 ml×20 AT-salts, 10 ml 50% (w/v) glucose, add 890 ml to final volume of 1 liter.) For O.N. at 30° C. in an orbital shaker. Into preheated water agar with 25 ml AT-buffer, and 60 μg/ml X-gal and 5 nM 3-oxo-c8 (both from Sigma-Aldrich) 25 ml of the starter was added. Then, that mixture was loaded on the TLC in glass plate for O.N. incubation in 30° C. The next day the inhibition zone was measured. The bacteria produce blue pigment during QS and when QS is inhibited no pigment is produced. KYC55 (pJZ372) (pJZ384) (pJZ410) preservation in tetracycline (1 μg/ml), spectinomycin (100 μg/ml), gentamicin (100 μg/ml) (all antibiotics from Sigma Aldrich) in AT media O.N. then centrifuged and suspend in 15% glycerol frozen and maintained at −80° C.

in vitro = experiment: in vitro
Protocol: (§2) The human Hodgkin's Lymphoma derived L428 cell line was used as a model. The cells were grown in RPMI Medium 1640 with 10% FBS, 1% Glutamine and pen-strep (all from Biological Industries, Israel). […] Thirty thousand (30,000) cells/well were placed in 96-well plates with the coumaperine derivatives at different concentrations or with vehicle (DMSO) at a final volume of 200 μl. The plates were incubated for 48 hrs. at 37° C. and 5% CO2 followed by the addition of 50 μl of the XTT reagent tetrazolium-formazan, (Biological Industries, Israel) was added for 2 hrs. at 37° C., 5% CO2. In living cells, mitochondria […] the tetrazolium-formazan salt, thereby generating a color absorbing product at 450 nm. Absorbance was measured at 450 nm and 650 nm in an enzyme-linked immunosorbent assay (ELISA) plate reader (Multiskan Spectrum, Version 1.2), and recorded. Absorption values at 650 nm were subtracted from the blank and the 450 nm values. The results were normalized to the control (treated with DMSO).
(§3) Viability was determined in triplicate in two independent tests. The results were normalized to vehicle (DMSO) treated cells, (100% viability). Mean+SD.

[2] = system: Agrobacterium tumefaciens (KYC55); experiment: Quorum sensing inhibition test with bio-reporter KYC55 (TLC overlay); type: cell-based; settings: for Degree of QSI of KYC55: Table 1, coumaperine derivatives, 40 mM in ~20 μL acetonitrile dried on TLC plate, overnight, color intensity; for QSI activity against KYC55, in words: running text; for Degree of QSI of KYC55: key: −: no inhibition; +: low inhibition; ++: medium inhibition; +++: strong inhibition; for Degree of quorum sensing inhibition (QSI), KYC55: key: −: no inhibition; +: low inhibition; ++: medium inhibition; +++: strong inhibition
Protocol: as §1

Acinetobacter baumannii = experiment: Diffusion discs test, Acinetobacter baumannii; type: cell-based; parameters: key: —: no activity; settings: discs with 40 mM of compound in 20 μl solvent
Protocol: (§4) All derivatives were dissolved in acetonitrile to a final concentration of 40 mM. Twenty (20) μl were loaded onto Whatman filter paper discs and dried. Bacillus subtilis, Staphylococcus aureus, and Acinetobacter baumannii were grown in LB (Lenox) O.N. One hundred (100) μl from the starter culture was plated on LB agar (Miller) dishes. Streptococcus sobrinus, and Streptococcus mutans grown in Brain Heary Infusion (BHI, Himedia) O.N. were similarly plated on BHI agar dishes. Discs were laid and incubated O.N. in 37° C. and the diameter of inhibition of bacterial growth was measured.

Streptococcus sobrinus = experiment: Diffusion discs test, Streptococcus sobrinus; type: cell-based; parameters: key: —: no activity; settings: discs with 40 mM of compound in 20 μl solvent
Protocol: as §4

Bacillus subtilis = experiment: Diffusion discs test, Bacillus subtilis; type: cell-based; parameters: key: —: no activity; settings: discs with 40 mM of compound in 20 μl solvent
Protocol: as §4

[3] = system: gram-positive and gram-negative bacteria; experiment: Antibacterial activity, overall statement (diffusion discs test); type: cell-based; settings: for Antibacterial activity, in words: running text; for Antibacterial: Table 6 summary
Protocol: as §4
The antibacterial activities of derivatives showing QSI are outlined in Table 4. […] Similar to that idea, synthetic derivatives of furanon (product of marine algae) shown in-vivo QSI activity without antibacterial activity followed by immune response of the infected animal. Phenolic compounds decrease QS and virulence in PA01 and Chromobacterium violaceum. There is increasing number of studies, searching for compounds that targeting non-vital processes to combat bacteria.

Streptococcus mutans = experiment: Diffusion discs test, Streptococcus mutans; type: cell-based; parameters: key: —: no activity; settings: discs with 40 mM of compound in 20 μl solvent
Protocol: as §4

PA01 = experiment: Diffusion discs test, PA01; type: cell-based, P. aeruginosa; parameters: key: —: no activity; settings: discs with 40 mM of compound in 20 μl solvent
Staphylococcus aureus = experiment: Diffusion discs test, Staphylococcus aureus; type: cell-based
Protocol: as §4

L428 cells = experiment: in vitro
Protocol: as §2, §3

NF-kB = experiment: NF-kB-luciferase reporter gene assay in L428 cells; type: cell-based, human; settings: Table 6 summary; note: key: +: active; −: inactive
Protocol: FIG. 7 includes a vertical bar graph showing a dose response of NF-kB activation according to an NF-kB reporter gene luciferase assay. L428 cells were stably transfected with the NF-kB luciferase reporter gene. The cells were incubated with the compounds at different concentrations for 2 hours. […] The results represent the percentage of NF-kB activation as compared to vehicle (DMSO) treated cells. All samples were normalized to protein concentration. Mean+SD, Two-way ANOVA and Tukey's multiple comparison test. 95% confidence interval (p-values *≤0.0332, **≤0.0021, ***≤0.0002).
L428 cells stable transfectants with the luciferase NF-kB-Luc reporter gene were generated previously described (Ozer et al., 2009), and were maintained in 500 μg/ml of G418 (G418 disulfate salt, Sigma-Aldrich). The cells (5×10^5 /well in triplicate) were incubated for 2 hrs. in 1 ml of medium containing the solvent (DMSO) or different concentrations of the molecules tested. Cells were then harvested, lysed, and monitored by a luciferase reporter assay kit (Promega) according to the manufacturer's instructions. Measurements were carried out using a luminometer (Promega, GLOMAX™ 20/20 Luminometer). Data were normalized to the protein concentration in each lysate as measured by the Bradford method (BioRad) and normalized to the control. Experiments were repeated at least three times.

[4] = system: quorum sensing (CV026 and KYC55); experiment: Quorum sensing inhibition, overall statement over the bio-reporter bacteria; type: cell-based; settings: for QSI: Table 6 summary; for QSI activity overall, in words: running text
Protocol: as §1
All the synthesized compounds were evaluated for quorum sensing inhibition against two bioreporter bacteria strains, Chromobacterium violaceum (CV026) and Agrobacterium tumefaciens (KYC55) and the results are summarized in Table 1.

SMILES | Degree of QSI of CV026 [1] | QSI activity against CV026, in words [1] | Degree of QSI of KYC55 [2] | QSI activity against KYC55, in words [2] | Antibacterial activity, in words [3] | Antibacterial [3] | Cytotoxic (L428 cells) | Anti-inflammatory (NF-kB) | QSI [4] | QSI activity overall, in words [4] | LC50 (L428 cells) | further results
COc1ccc(/C=C/C=C/C(=O)N2CCCCC2)cc1 [CP-38, (2E,4E)-5-(4-methoxyphenyl)-1-(piperidin-1-yl)penta-2,4-dien-1-one] | ++ | moderate | + | low |  |  |  |  |  |  |  | CC50 at 48 h (in vitro; human, LC50): 47.4 µM
CSc1ccc(/C=C/C=C/C(=O)N2CCCCC2)cc1 [CP-147, (2E,4E)-5-(4-(methylthio)phenyl)-1-(piperidin-1-yl)penta-2,4-dien-1-one] | + | low activity; also recorded: low QS inhibition effect | − | inactivity; also recorded: does not affect QS | showed antibacterial activity |  |  |  |  |  |  | Acinetobacter baumannii, diameter of growth inhibition (Acinetobacter baumannii): —; Streptococcus sobrinus, diameter of growth inhibition (Streptococcus sobrinus): —; Bacillus subtilis, diameter of growth inhibition (Bacillus subtilis): —; Streptococcus mutans, diameter of growth inhibition (Streptococcus mutans): —; PA01, diameter of growth inhibition (PA01): —; Staphylococcus aureus, diameter of growth inhibition (Staphylococcus aureus; discs with 40 mM of compound in 20 μl solvent): 9 mm; Staphylococcus aureus growth inhibition, in words (Staphylococcus aureus; running text): inhibits Staphylococcus aureus growth
CC(=O)Oc1ccc(/C=C/C=C/C(=O)N2CCCCC2)cc1 [CP-158, 4-((1E,3E)-5-oxo-5-(piperidin-1-yl)penta-1,3-dienyl)phenyl acetate] | +++ | more effective against CV026 than KYC55 | ++ |  | did not show antibiotic activity | − | + | + | + | anti QS activity |  | CC50 at 48 h (in vitro; human, LC50): 285 µM; Cytotoxic activity, in words (L428 cells): not cytotoxic
COc1cc(/C=C/C=C/C(=O)N2CCCCC2)ccc1O [CP-205] | ++ | moderate activity; also recorded: moderately active | ++ | moderate activity; also recorded: moderately active |  | − | − | + | + |  | Non-toxic | Cytotoxic activity, in words (L428 cells): no cytotoxic activity
O=C(/C=C/c1ccc2c(c1)OCO2)N1CCCCC1 [CP-215, (E)-3-(benzo[d][1,3]dioxol-5-yl)-1-(piperidin-1-yl)prop-2-en-1-one] |  | highly active |  | highly active | did not show antibiotic activity | − | − | + | + | active; also recorded: strong | Non-toxic | QSI activity overall, in words ([4]; listed as CP215): anti QS activity
O=C(/C=C/c1ccc([N+](=O)[O-])cc1)N1CCCCC1 [CP-286] | + | low | ++ | moderate | did not show antibiotic activity | − | − | + | + | anti QS activity | Non-toxic | 
COc1cc(CCC(=O)CC(=O)CCc2ccc(O)c(OC)c2)ccc1O [HCU, Tetrahydrocurcumin] |  |  |  |  |  | − |  | + | + |  |  | Degree of quorum sensing inhibition (QSI), CV026 ([1]; Table 3, curcumin derivatives): +; CC50 at 48 h (in vitro): 102 µM; Cytotoxic activity, in words (L428 cells; L428 cells): cytotoxic; Cytotoxic (L428 cells; Table 6 summary): +; Degree of quorum sensing inhibition (QSI), KYC55 ([2]; Table 3, curcumin derivatives): +++
